≈ marks a conversion by molar mass, not a printed value.
Key:
[1] = tested on: Bacteroides nordii KLE 2369; format: cell-based; conditions: KLE2369; Bacteroides nordii KLE 2369, anaerobic, stool isolate; read-out: Minimum inhibitory concentration (MIC)
[2] = tested on: Borrelia turcica DSM 16138; conditions: Borrelia turcica, DSM16138, read-out: Minimum inhibitory concentration (MIC)
Borreliella miyamotoi = conditions: Borreliella, read-out: Minimum inhibitory concentration (MIC)
B. burgdorferi N40 = experiment: Mouse infection model (IP injection, oral gavage); conditions: for Culture positive (%): C3H, 5 days, whole ear culture
[3] = tested on: Bacteroides ovatus KLE 2306; format: cell-based; conditions: KLE2306; Bacteroides ovatus KLE 2306, anaerobic, stool isolate; read-out: Minimum inhibitory concentration (MIC)
[4] = tested on: Bacteroides xylanisolvens KLE 2305; format: cell-based; conditions: KLE2305; Bacteroides xylanisolvens KLE 2305, anaerobic, stool isolate; read-out: Minimum inhibitory concentration (MIC)
murine gut microbiome = experiment: Impact on the murine fecal microbiome (16S rRNA sequencing); conditions: mouse, in vivo
Procedure: Stool samples were collected and V4 region of the 16s rRNA gene was amplified using primers and sequenced (IonTorrent).
Fecal pellets were collected 3 days before and 3 days after antibiotic treatment and were stored at −80° C. in PBS. Sequencing of a stool pellet from each mouse from before and after treatment was performed by MR DNA (www.mrdnalab.com, Shallowater, TX, USA) on an Ion Torrent PGM. Using PCR primers, the V4 variable region of the 16SrRNA gene was amplified in a single-step 30 cycle PCR with the HotStarTaq Plus Master Mix Kit (Qiagen, USA). The following conditions were used: 94° C. for 3 minutes and 30 cycles of 94° C. for 30 seconds, 53° C. for 40 seconds and 72° C. for 1 minute, then a final elongation step for 5 minutes at 72° C. […] Barcodes and primers and then sequences<150 bp were removed. Further, sequences with homopolymer runs exceeding 6 bp and sequences with ambiguous calls were removed. The sequences were then denoised, OTUs were generated, and chimeras were removed; OTUs were clustered at 3% divergence. Taxonomic classification was performed using BLASTn against a database derived from RDPII available at www.rdp.cme.msu.edu) and NCBI (www.ncbi.nlm.nih.gov). The change in relative abundance of the most abundant genera from before to after treatment of each individual mouse was reported. Further, raw sequences were processed in Qiita (Gonzalez, A., et al. (2018). Nat Methods 15, 796-798; the contents of which are herein incorporated by reference in its entirety) and were demultiplexed, trimmed to 100 bp, and closed reference OTU picking was performed against the Greengenes database at 97% similarity (McDonald, D. et al. (2012). ISME J 6, 610-618; the contents of which are herein incorporated by reference in its entirety). The alpha diversity based on the Simpson index was calculated in Qiita. The change in the Simpson index was calculated for the fecal microbiome of each mouse from before to after treatment. Statistical significance was calculated using a one-way ANOVA with Tukey's multiple comparisons test (p<0.05).

[5] = tested on: Bacteroides cellulosilyticus KLE 2342; format: cell-based; conditions: KLE2342; Bacteroides cellulosilyticus KLE 2342, anaerobic, stool isolate; read-out: Minimum inhibitory concentration (MIC)
[6] = tested on: Bifidobacterium longum ATCC BAA-999; format: cell-based; conditions: ATCCBAA999; Bifidobacterium longum ATCC BAA-999, anaerobic; read-out: Minimum inhibitory concentration (MIC)
Borrelia afzelii = conditions: Borreliella afzelii, read-out: Minimum inhibitory concentration (MIC)
[7] = tested on: Streptococcus parasanguinis KLE 2375; format: cell-based; conditions: KLE2375; Streptococcus parasanguinis KLE 2375, anaerobic, stool isolate; read-out: Minimum inhibitory concentration (MIC)
[8] = tested on: Blautia producta ATCC 27340; format: cell-based; conditions: ATCC27340; Blautia producta ATCC 27340, anaerobic; read-out: Minimum inhibitory concentration (MIC)
[9] = tested on: Staphylococcus aureus HG003; format: cell-based; conditions: Staphylococcus aureus HG003; read-out: Minimum inhibitory concentration (MIC)
Borrelia bavariensis = conditions: Borreliella bavariensis, read-out: Minimum inhibitory concentration (MIC)
[10] = tested on: Borreliella burgdorferi 297; conditions: Borreliella burgdorferi, 297, read-out: Minimum inhibitory concentration (MIC)
[11] = tested on: Parabacteroides merdae KLE 2238; format: cell-based; conditions: KLE2238; Parabacteroides merdae KLE 2238, anaerobic, stool isolate; read-out: Minimum inhibitory concentration (MIC)
[12] = tested on: Borreliella burgdorferi B31; conditions: Borreliella burgdorferi, B31, read-out: Minimum inhibitory concentration (MIC)
[13] = tested on: Borreliella burgdorferi N40; conditions: Borreliella burgdorferi, N40, read-out: Minimum inhibitory concentration (MIC)
[14] = tested on: Brevinema andersonii ATCC 43811; conditions: Brevinema andersonii, ATCC43811, read-out: Minimum inhibitory concentration (MIC)
[15] = tested on: Staphylococcus epidermidis KLE 2378; format: cell-based; conditions: KLE2378; Staphylococcus epidermidis KLE 2378, anaerobic, stool isolate; read-out: Minimum inhibitory concentration (MIC)
[16] = tested on: Enterococcus faecalis KLE 2341; format: cell-based; conditions: KLE2341; Enterococcus faecalis KLE 2341, anaerobic, stool isolate; read-out: Minimum inhibitory concentration (MIC)
[17] = tested on: Salmonella typhimurium LT2 ATCC 19585; format: cell-based; conditions: Salmonella enterica; Salmonella typhimurium LT2 ATCC 19585, anaerobic; read-out: Minimum inhibitory concentration (MIC)
[18] = tested on: Bacteroides fragilis ATCC 25285; format: cell-based; conditions: ATCC25285; Bacteroides fragilis ATCC 25285, anaerobic; read-out: Minimum inhibitory concentration (MIC)
[19] = tested on: Leptospira biflexa ATCC 23582; conditions: Leptospira biflexa, ATCC23582, read-out: Minimum inhibitory concentration (MIC)
[20] = tested on: Streptococcus salivarius KLE 2370; format: cell-based; conditions: KLE2370; Streptococcus salivarius KLE 2370, anaerobic, stool isolate; read-out: Minimum inhibitory concentration (MIC)
[21] = tested on: Pseudomonas aeruginosa PAO1; format: cell-based; conditions: Pseudomonas aeruginosa PAO1; read-out: Minimum inhibitory concentration (MIC)
[22] = 156 mg/kg, IP injection, twice a day for 5 days

SMILES | MIC [1] | MIC [2] | MIC (Borreliella miyamotoi) | MIC [3] | MIC [4] | MIC [5] | MIC [6] | MIC (Borrelia afzelii) | MIC [7] | MIC [8] | MIC [9] | MIC (Borrelia bavariensis) | MIC [10] | MIC [11] | MIC [12] | MIC [13] | MIC [14] | MIC [15] | MIC [16] | MIC [17] | also measured
CC1(C)S[C@@H]2[C@H](NC(=O)[C@H](N)c3ccc(O)cc3)C(=O)N2[C@H]1C(=O)O [Amoxicillin] | 32 mg/L (≈ 87.6 µM) | 0.25 mg/L (≈ 0.684 µM) | 0.12 mg/L (≈ 0.328 µM) | 0.5 mg/L (≈ 1.37 µM) | 32 mg/L (≈ 87.6 µM) | 128 mg/L (≈ 350 µM) | 1 mg/L (≈ 2.74 µM) | 0.01 mg/L (≈ 0.0274 µM) | 64 mg/L (≈ 175 µM) | 1 mg/L (≈ 2.74 µM) | 1 mg/L (≈ 2.74 µM) | 0.06 mg/L (≈ 0.164 µM) | 0.25 mg/L (≈ 0.684 µM) | 1 mg/L (≈ 2.74 µM) | 0.25 mg/L (≈ 0.684 µM) | 0.12 mg/L (≈ 0.328 µM) | 0.12 mg/L (≈ 0.328 µM) | > 128 mg/L | 0.5 mg/L (≈ 1.37 µM) | 16 mg/L (≈ 43.8 µM) | Culture positive (%) (B. burgdorferi N40; oral gavage, daily dose 200 mg/kg/day): 0%; Bloom of Bacteroides (murine gut microbiome): produced a bloom of Bacteroides; Changes in the composition of the microbiota (murine gut microbiome): significant changes; Mice with Enterococcaceae blooms (murine gut microbiome): 4/5; MIC [18]: 16 mg/L (≈ 43.8 µM); MIC [19]: 8 mg/L (≈ 21.9 µM); MIC [20]: 0.06 mg/L (≈ 0.164 µM); MIC [21]: > 128 mg/L
CO/N=C(\C(=O)N[C@@H]1C(=O)N2C(C(=O)O)=C(CSc3nc(=O)c(=O)[nH]n3C)CS[C@H]12)c1csc(N)n1 [Ceftriaxone] | 1 mg/L (≈ 1.8 µM) | 0.06 mg/L (≈ 0.108 µM) | 0.01 mg/L (≈ 0.018 µM) | 0.02 mg/L (≈ 0.0361 µM) | 64 mg/L (≈ 115 µM) | 128 mg/L (≈ 231 µM) | 4 mg/L (≈ 7.21 µM) | < 0.01 mg/L | 0.06 mg/L (≈ 0.108 µM) | 0.5 mg/L (≈ 0.902 µM) | 8 mg/L (≈ 14.4 µM) | 0.01 mg/L (≈ 0.018 µM) | 0.01 mg/L (≈ 0.018 µM) | 0.25 mg/L (≈ 0.451 µM) | 0.01 mg/L (≈ 0.018 µM) | 0.01 mg/L (≈ 0.018 µM) | 0.01 mg/L (≈ 0.018 µM) | 1 mg/L (≈ 1.8 µM) | > 128 mg/L | 0.25 mg/L (≈ 0.451 µM) | B. burgdorferi culture (% positive) (B. burgdorferi N40; [22]): 0%; Mean # of B. burgdorferi/10 mg of skin tissue (qPCR) (B. burgdorferi N40; [22]): <1 B. burgdorferi/10 mg of skin t; Culture positive (%) (B. burgdorferi N40; intraperitoneal injection, daily dose 312 mg/kg/day): 0%; Mice with Enterococcaceae blooms (murine gut microbiome): 5/5; MIC [18]: 2 mg/L (≈ 3.61 µM); MIC [19]: 2 mg/L (≈ 3.61 µM); MIC [20]: 0.03 mg/L (≈ 0.0541 µM); MIC [21]: 64 mg/L (≈ 115 µM)
C[C@H]1c2cccc(O)c2C(=O)C2=C(O)[C@]3(O)C(=O)C(C(N)=O)=C(O)[C@@H](N(C)C)[C@@H]3[C@@H](O)[C@@H]21 [Doxycycline] | 0.25 mg/L (≈ 0.563 µM) | 0.25 mg/L (≈ 0.563 µM) | 0.12 mg/L (≈ 0.27 µM) | 0.01 mg/L (≈ 0.0225 µM) | 0.5 mg/L (≈ 1.13 µM) | 2 mg/L (≈ 4.5 µM) | 0.25 mg/L (≈ 0.563 µM) | 0.12 mg/L (≈ 0.27 µM) | 4 mg/L (≈ 9 µM) | 2 mg/L (≈ 4.5 µM) | 0.12 mg/L (≈ 0.27 µM) | 0.12 mg/L (≈ 0.27 µM) | 0.25 mg/L (≈ 0.563 µM) | 0.06 mg/L (≈ 0.135 µM) | 0.25 mg/L (≈ 0.563 µM) | 0.25 mg/L (≈ 0.563 µM) | 0.12 mg/L (≈ 0.27 µM) | 0.5 mg/L (≈ 1.13 µM) | 0.5 mg/L (≈ 1.13 µM) | 8 mg/L (≈ 18 µM) | Culture positive (%) (B. burgdorferi N40; oral gavage, daily dose 100 mg/kg/day): 0%; MIC [18]: 0.5 mg/L (≈ 1.13 µM); MIC [19]: 2 mg/L (≈ 4.5 µM); MIC [20]: 0.12 mg/L (≈ 0.27 µM); MIC [21]: 32 mg/L (≈ 72 µM)
